The values that follow come from ChEMBL document CHEMBL5131564, “Discovery of Potent and Selective Receptor-Interacting Serine/Threonine Protein Kinase 2 (RIPK2) Inhibitors for the Treatment of Inflammatory Bowel Diseases (IBDs)” (J Med Chem, 2022).

Each structure is given as a SMILES string. The source made the active and inactive calls. The calls are words filed in the database; no cut-off is given here. Some results are limits rather than exact numbers.

Data set [1] can be described thus: Cmax in Balb/C mouse at 10 mg/kg, po measured upto 48 hrs by LC-MS/MS analysis. The class given is ADME, organism-based. More on the design: dose 10 mg/kg, time < 48 hrs, route po. The settings on record: in vivo.
Data set [2] concerns the target T1, Dual serine/threonine and tyrosine protein kinase (Homo sapiens, UniProt Q6XUX3).
T1 sequence (Q6XUX3 whole entry): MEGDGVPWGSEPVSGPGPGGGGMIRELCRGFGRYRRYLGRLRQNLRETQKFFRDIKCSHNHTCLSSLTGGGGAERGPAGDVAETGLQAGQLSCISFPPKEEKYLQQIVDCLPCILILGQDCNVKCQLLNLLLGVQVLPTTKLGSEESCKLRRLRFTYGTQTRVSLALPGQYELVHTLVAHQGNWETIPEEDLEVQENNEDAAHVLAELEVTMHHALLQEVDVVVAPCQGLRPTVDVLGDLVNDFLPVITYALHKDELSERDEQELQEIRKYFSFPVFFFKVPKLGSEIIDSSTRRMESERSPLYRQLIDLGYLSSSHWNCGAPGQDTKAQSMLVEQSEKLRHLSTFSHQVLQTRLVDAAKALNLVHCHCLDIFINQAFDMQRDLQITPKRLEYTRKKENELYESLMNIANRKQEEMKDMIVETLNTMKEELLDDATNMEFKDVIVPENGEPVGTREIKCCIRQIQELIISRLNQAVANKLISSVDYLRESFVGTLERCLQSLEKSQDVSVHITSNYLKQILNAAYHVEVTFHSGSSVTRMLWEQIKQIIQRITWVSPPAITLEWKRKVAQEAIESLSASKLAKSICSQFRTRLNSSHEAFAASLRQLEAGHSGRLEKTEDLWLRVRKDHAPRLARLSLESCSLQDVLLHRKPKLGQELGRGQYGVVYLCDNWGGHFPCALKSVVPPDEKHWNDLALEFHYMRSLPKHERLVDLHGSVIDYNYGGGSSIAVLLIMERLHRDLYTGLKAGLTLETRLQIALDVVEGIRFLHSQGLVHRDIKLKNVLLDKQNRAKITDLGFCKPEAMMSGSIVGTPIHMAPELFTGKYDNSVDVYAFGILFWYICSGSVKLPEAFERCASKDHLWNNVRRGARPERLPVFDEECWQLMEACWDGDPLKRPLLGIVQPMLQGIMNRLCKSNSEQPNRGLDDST
Kind of data set: Binding affinity to human RIPK5.

Data set [3] in a line: Inhibition of LPS/MDP-stimulated TNFalpha production in C57BL/6J mouse BMDM cells by ELISA relative to control. In kind it is functional, cell-based. In general terms: In an ELISA, binding on a coated surface is turned into a signal by an enzyme label.
In data set [4] the target is T2, Receptor-interacting serine/threonine-protein kinase 1 (Homo sapiens, UniProt Q13546).
T2 sequence (Q13546 whole entry): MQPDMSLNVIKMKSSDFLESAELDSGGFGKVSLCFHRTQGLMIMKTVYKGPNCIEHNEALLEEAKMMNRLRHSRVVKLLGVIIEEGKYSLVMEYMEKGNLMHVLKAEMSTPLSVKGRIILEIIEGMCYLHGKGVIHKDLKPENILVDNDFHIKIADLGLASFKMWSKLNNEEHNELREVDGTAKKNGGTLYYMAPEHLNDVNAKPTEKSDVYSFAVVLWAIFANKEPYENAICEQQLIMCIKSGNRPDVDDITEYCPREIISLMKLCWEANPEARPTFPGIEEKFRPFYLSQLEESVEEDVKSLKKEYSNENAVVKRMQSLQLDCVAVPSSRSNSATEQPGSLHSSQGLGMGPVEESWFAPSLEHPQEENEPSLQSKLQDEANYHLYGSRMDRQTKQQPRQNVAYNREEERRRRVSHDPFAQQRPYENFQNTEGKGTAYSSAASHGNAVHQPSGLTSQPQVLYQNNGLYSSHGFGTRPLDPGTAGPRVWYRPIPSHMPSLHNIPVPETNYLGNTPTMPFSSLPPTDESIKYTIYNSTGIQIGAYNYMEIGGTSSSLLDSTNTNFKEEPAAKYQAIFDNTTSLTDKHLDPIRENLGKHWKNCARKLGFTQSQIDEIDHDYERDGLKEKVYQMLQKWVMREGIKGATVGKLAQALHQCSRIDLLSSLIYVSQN
Kind of data set: Inhibition of human RIPK1 by kinase assay.

A short description of data set [5]: Elimination half life in Balb/C mouse at 10 mg/kg, po measured upto 48 hrs by LC-MS/MS analysis. To be noted: in vivo, read-out: beta t1/2 (converted). The class given is ADME, organism-based.
The target in data set [6] is Receptor-interacting serine/threonine-protein kinase 3 (Homo sapiens, UniProt Q9Y572). Briefly: Binding affinity to human RIPK3 in human Jurkat cells. The class given is cell-based.
Data set [7] concerns the target Proto-oncogene tyrosine-protein kinase Src (Homo sapiens, UniProt P12931). Briefly: Inhibition of human c-SRC by kinase assay.
Data set [8] in a line: Clearance in Balb/C mouse plasma at 10 mg/kg, iv measured upto 48 hrs by LC-MS/MS analysis. The class given is ADME, organism-based.
Data set [9] addresses Epithelial discoidin domain-containing receptor 1 (Homo sapiens, UniProt Q08345). Kind of data set: Inhibition of human DDR1 by kinase assay.
Data set [10] can be described thus: Volume of distribution in Balb/C mouse at 10 mg/kg, iv measured upto 48 hrs by LC-MS/MS analysis. The class given is ADME, organism-based. To be noted: in vivo.
For data set [11], the system named is Mus musculus. Briefly: Anti-inflammatory activity against DSS-induced acute ulcerative colitis C57BL/6 mouse model assessed as recovery of body weight at 20 to 40 mg/kg, po once a day measured after 2 days followed by 7 days after DSS treatment. The class given is functional, organism-based. To be noted: dose 20-40 mg/kg, time 2.0 day.
A short description of data set [12]: AUC (0 to t) in Balb/C mouse at 10 mg/kg, iv measured upto 48 hrs by LC-MS/MS analysis. In kind it is ADME, organism-based. The settings on record: in vivo. Also on record: time < 48 hrs, dose 10 mg/kg, route iv.
For a further data set, the system named is RAW264.7. Briefly: Cytotoxicity against mouse RAW264.7 cells at 62.5 to 250 nM in presence of NOD measured after 24 hrs by propidium iodide staining based flow cytometry. The class given is toxicity, cell-based. To be noted: raw264.7, 24 h, 0.25 µM, dose 62.5-250 nM. On the technique in general: In flow cytometry, cells or beads pass a laser one at a time.

Data set [13] concerns Mus musculus. Briefly: Anti-inflammatory activity against DSS-induced acute ulcerative colitis C57BL/6 mouse model assessed as reduction in fecal occult blood at 20 to 40 mg/kg, po once a day measured after 2 days followed by 7 days after DSS treatment. The settings on record: dose 20-40 mg/kg, time 2.0 day. The class given is functional, organism-based.
Data set [14] is described as follows: Elimination half life in Balb/C mouse at 10 mg/kg, iv measured upto 48 hrs by LC-MS/MS analysis. In kind it is ADME, organism-based. The settings on record: in vivo, read-out: beta t1/2 (converted).
Data set [15] can be described thus: Clearance in Balb/C mouse plasma at 10 mg/kg, po measured upto 48 hrs by LC-MS/MS analysis. In kind it is ADME, organism-based.

Proto-oncogene tyrosine-protein kinase Src, sequence (P12931 2-536 limits assumed): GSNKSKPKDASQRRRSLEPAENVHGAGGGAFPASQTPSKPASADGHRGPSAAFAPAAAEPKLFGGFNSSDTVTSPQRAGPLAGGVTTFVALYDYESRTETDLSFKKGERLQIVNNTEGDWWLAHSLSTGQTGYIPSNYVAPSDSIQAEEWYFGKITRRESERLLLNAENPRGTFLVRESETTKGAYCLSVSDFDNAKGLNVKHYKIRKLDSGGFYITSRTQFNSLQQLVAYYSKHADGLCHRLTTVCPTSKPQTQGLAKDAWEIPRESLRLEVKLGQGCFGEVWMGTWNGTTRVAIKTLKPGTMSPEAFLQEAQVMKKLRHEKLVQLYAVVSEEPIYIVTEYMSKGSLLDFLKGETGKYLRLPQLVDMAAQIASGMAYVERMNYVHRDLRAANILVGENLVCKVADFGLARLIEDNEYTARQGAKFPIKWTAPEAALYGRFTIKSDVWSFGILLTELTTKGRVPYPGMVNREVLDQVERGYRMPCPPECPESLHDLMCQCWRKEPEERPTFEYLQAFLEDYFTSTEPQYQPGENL
Epithelial discoidin domain-containing receptor 1, sequence (Q08345 whole entry, the tested form may be a part): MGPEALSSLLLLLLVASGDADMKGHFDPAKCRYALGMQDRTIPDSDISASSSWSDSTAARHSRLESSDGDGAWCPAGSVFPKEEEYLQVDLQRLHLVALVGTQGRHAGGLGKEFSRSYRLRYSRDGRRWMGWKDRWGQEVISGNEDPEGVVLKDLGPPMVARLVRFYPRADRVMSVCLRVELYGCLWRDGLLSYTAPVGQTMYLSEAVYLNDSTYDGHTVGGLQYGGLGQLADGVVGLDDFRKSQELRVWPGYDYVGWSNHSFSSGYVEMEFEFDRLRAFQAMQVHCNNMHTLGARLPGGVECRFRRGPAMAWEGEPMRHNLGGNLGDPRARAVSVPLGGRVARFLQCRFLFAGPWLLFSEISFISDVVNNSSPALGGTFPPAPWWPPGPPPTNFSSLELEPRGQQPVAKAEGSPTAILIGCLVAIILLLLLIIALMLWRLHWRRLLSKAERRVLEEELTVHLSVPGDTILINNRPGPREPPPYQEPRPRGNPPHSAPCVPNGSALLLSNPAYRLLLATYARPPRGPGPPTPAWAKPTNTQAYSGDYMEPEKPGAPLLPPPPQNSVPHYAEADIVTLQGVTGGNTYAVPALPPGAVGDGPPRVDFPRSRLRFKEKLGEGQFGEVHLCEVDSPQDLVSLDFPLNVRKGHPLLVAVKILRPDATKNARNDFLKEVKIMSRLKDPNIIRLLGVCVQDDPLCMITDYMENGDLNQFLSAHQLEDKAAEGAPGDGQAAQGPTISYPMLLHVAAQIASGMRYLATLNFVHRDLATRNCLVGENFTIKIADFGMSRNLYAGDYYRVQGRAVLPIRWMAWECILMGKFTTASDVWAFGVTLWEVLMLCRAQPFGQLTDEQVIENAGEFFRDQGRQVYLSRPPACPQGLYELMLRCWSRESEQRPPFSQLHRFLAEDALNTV
Receptor-interacting serine/threonine-protein kinase 3, sequence (Q9Y572 whole entry): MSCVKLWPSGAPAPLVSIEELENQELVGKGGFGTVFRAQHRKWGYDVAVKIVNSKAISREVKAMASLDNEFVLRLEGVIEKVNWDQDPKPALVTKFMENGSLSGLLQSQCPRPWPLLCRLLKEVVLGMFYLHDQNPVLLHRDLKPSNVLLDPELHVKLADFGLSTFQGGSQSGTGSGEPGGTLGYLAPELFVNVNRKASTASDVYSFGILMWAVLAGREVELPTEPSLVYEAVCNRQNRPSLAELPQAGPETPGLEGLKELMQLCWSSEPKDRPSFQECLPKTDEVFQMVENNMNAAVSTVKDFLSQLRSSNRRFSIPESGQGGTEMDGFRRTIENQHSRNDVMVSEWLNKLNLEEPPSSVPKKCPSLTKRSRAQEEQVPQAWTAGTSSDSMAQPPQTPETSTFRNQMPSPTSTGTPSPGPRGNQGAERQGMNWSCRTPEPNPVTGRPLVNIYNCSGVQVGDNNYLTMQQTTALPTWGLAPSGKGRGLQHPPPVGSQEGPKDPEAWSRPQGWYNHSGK

For orientation: Cmax means the peak of the concentration-time curve. One may read the Kd as a measure of binding affinity in units of concentration. By IC50 is commonly meant the concentration at which inhibition is half-maximal. Low values mean greater potency, high ones weaker potency. For orientation: clearance means a measure of how efficiently the substance is removed, as volume per time. A higher clearance goes with efficient removal. Broadly, the Vd is a proportionality between amount in the body and measured concentration, not a real space. Lower therefore signals little distribution into tissue. One may read the AUC(0-t) as the area under the concentration-time curve up to a stated or last time point. High values mean high exposure, low ones low exposure. In general, CL/F refers to clearance divided by bioavailability, as obtained after extravascular dosing. Regarding `Cc1ccc(-c2cn([C@H]3CC[C@@H](N)CC3)c3ncnc(N)c23)c(F)c1`, the Cmax in data set [1] stood at 68.1 ng/mL. For the same compound, the Kd is 670 nM in data set [2] and 74.5 nM in data set [6]. The IC50 in [3] is 0.3 nM; in [4], more than 30000 nM; in [7], 56 nM; in [9] it was 15 nM. The half-life in data set [5] is 3.62 h; in data set [14], 3.9 h. In data set [8], this compound had a clearance of 166 mL/min/kg. This compound also showed a Vd in [10] of 43.9 L/kg. The result in the data set with Mus musculus [11] and in the data set with Mus musculus [13] was Active. This compound registered an AUC(0-t) at 48 h in data set [12] of 1000 ng·h/mL. In addition, in the data set with RAW264.7, the Activity entry is “Non-Toxic”. For the same compound, the CL/F in data set [15] is 1130 mL/min/kg.
